According to patent publication US20090123907A1 (priority 2004, published 2009):

Columns and labels:
[1] = test system: plasma proteins; experiment: Protein resistance to glass beads; conditions: Na citrate 0.4%, lysine citrate 2.0%
Description: The above experiment was repeated using glass beads as a denaturing agent. Generally, contact of blood plasma with glass surfaces results in activation or denaturation. […].

[2] = test system: plasma proteins; experiment: Protein resistance to 56° C. treatment; conditions: Na citrate 0.4%, lysine citrate 2.0%
Description: […]. In many cases heat treatments have been used to reduce or eliminated infectious agents from blood products. A problem with such an approach has been heat induced changes in the antigenicity of certain blood components. […]. A continuation of this experiment was set up to check also long term room temperature stability. It is generally believed that resistance to heat is an indicator of room temperature stability. That is the justification for estimating long term stability of products by using “accelerated” stability tests based on storage at an elevated temperature. In the presented experiment it is important to note that different plasma sample were used for the two different anticoagulants because a single sample was not large enough to provide sufficient volume for all of the tests over the life of the extended experiment.

[3] = test system: clot formation; experiment: Clotting times (PT, PTT) of anticoagulated whole blood; format: biochemical
Method: In this experiment whole blood (an aliquot of which clotted within 10 minutes without anticoagulant) was modified by adding a number of different anticoagulant compositions. Sodium citrate was used as an anticoagulant at 0.65%, 0.75% and 0.9% by weight. These are all higher citrate levels than the usual 0.4% by weight. Amino acid citrates (lysine or arginine) were used at 0.65%, 0.75% and 0.9% by weight based on the weight of the citric acid. The amino acid counterion was used in sufficient quantity to adjust the pH as explained above.

[4] = Level of calcium measured in blood with citrate anticoagulants
Description: Lysine citrate is compared to traditional sodium citrate. The various citrate levels are expressed as a weight percentage of citrate so that equivalent levels have the same amount of citrate. The same blood was used throughout so that all of the samples started with the same calcium concentration. Since citrate is an effective chelator of calcium one expects the measured level of calcium to decrease with increasing levels of citrate as more and more of the calcium is “tied up” by the citrate. There is an equilibrium between free measurable calcium and calcium associated with citrate molecules. As the concentration of citrate is increased, calcium levels are lowered as there is a higher and higher probability that a given calcium ion will be interacting with a citrate molecule. […] There are at least two different ways of interpreting phenomenon. It is possible that when lysine molecules interact with citrate molecules, the interaction somehow prevents the chelation of calcium. This would explain the higher calcium measurements because there would effectively be a lower level of citrate present. […] That too would explain the higher measured calcium level but does little to solve the remainder of the conundrum. […] Thus, another advantage of lysine citrate is enhanced patient safety and a simpler plasmapheresis set up since it will not longer be necessary to administer protective doses of calcium.

[5] = Post 30 min rocking with glass beads
[6] = Post 56° C. for five minutes, plasma

O=C([O-])CC(O)(CC(=O)[O-])C(=O)[O-].[Na+].[Na+].[Na+] [Na Citrate, sodium citrate, reference compound]
Alk. Phos [1, 5]: 16 IU/.L
LDH [1, 5]: 24 IU/L
SGOT [1, 5]: 1 IU/L
SGPT [1, 5]: 1 IU/L
fIX [1, 5]: 14%
fV [1, 5]: 15%
fVIII [1, 5]: 29%
fibrinogen [1, 5]: 88 mg/dL
Alk. Phos ([1]; Pre glass beads): 27 IU/.L
LDH ([1]; Pre glass beads): 100 IU/L
SGOT ([1]; Pre glass beads): 15 IU/L
SGPT ([1]; Pre glass beads): 29 IU/L
fIX ([1]; Pre glass beads): 103%
fV ([1]; Pre glass beads): 98%
fVIII ([1]; Pre glass beads): 102%
fibrinogen ([1]; Pre glass beads): 258 mg/dL
Alk. Phos [2, 6]: 23 IU/.L
LDH [2, 6]: 84 IU/L
SGOT [2, 6]: 15 IU/L
SGPT [2, 6]: 21 IU/L
fIX [2, 6]: 67%
fV [2, 6]: 45%
fVIII [2, 6]: 56%
fibrinogen [2, 6]: 15 mg/dL
Alk. Phos ([2]; before heating, fresh plasma): 30 IU/.L
LDH ([2]; before heating, fresh plasma): 110 IU/L
SGOT ([2]; before heating, fresh plasma): 18 IU/L
SGPT ([2]; before heating, fresh plasma): 32 IU/L
fIX ([2]; before heating, fresh plasma): 104%
fV ([2]; before heating, fresh plasma): 98%
fVIII ([2]; before heating, fresh plasma): 109%
fibrinogen ([2]; before heating, fresh plasma): 206 mg/dL
PT (4 hrs at RT) ([3]; anticoagulant 0.65 wgt %): 13.1 s
PTT (4 hrs at RT) ([3]; anticoagulant 0.65 wgt %): 28.7 s
PT (4 hrs at RT) ([3]; anticoagulant 0.75 wgt %): 14.1 s
PTT (4 hrs at RT) ([3]; anticoagulant 0.75 wgt %): 31.5 s
PT (4 hrs at RT) ([3]; anticoagulant 0.90 wgt %): 21.2 s
PTT (4 hrs at RT) ([3]; anticoagulant 0.90 wgt %): 35.0 s
Level of calcium measured ([4]; Citrate Level 0.01%): 9.2 mg/dL
Level of calcium measured ([4]; Citrate Level 0.05%): 8.7 mg/dL
Level of calcium measured ([4]; Citrate Level 0.1%): 5.3 mg/dL
Level of calcium measured ([4]; Citrate Level 0.25%): 2.5 mg/dL
Level of calcium measured ([4]; Citrate Level 0.5%): 0.6 mg/dL
Level of calcium measured ([4]; Citrate Level 1%): 0 mg/dL

NCCCC[C@H](N)C(=O)O.O=C(O)CC(O)(CC(=O)O)C(=O)O [Lysine Citrate, lysine citrate]
Alk. Phos [1, 5]: 24 IU/.L
LDH [1, 5]: 96 IU/L
SGOT [1, 5]: 12 IU/L
SGPT [1, 5]: 24 IU/L
fIX [1, 5]: 84%
fV [1, 5]: 67%
fVIII [1, 5]: 62%
fibrinogen [1, 5]: 202 mg/dL
Alk. Phos ([1]; Pre glass beads): 25 IU/.L
LDH ([1]; Pre glass beads): 99 IU/L
SGOT ([1]; Pre glass beads): 12 IU/L
SGPT ([1]; Pre glass beads): 26 IU/L
fIX ([1]; Pre glass beads): 98%
fV ([1]; Pre glass beads): 95%
fVIII ([1]; Pre glass beads): 97%
fibrinogen ([1]; Pre glass beads): 247 mg/dL
Alk. Phos [2, 6]: 16 IU/.L
LDH [2, 6]: 91 IU/L
SGOT [2, 6]: 7 IU/L
SGPT [2, 6]: 17 IU/L
fIX [2, 6]: 79%
fV [2, 6]: 69%
fVIII [2, 6]: 88%
fibrinogen [2, 6]: 147 mg/dL
Alk. Phos ([2]; before heating, fresh plasma): 23 IU/.L
LDH ([2]; before heating, fresh plasma): 97 IU/L
SGOT ([2]; before heating, fresh plasma): 10 IU/L
SGPT ([2]; before heating, fresh plasma): 20 IU/L
fIX ([2]; before heating, fresh plasma): 99%
fV ([2]; before heating, fresh plasma): 97%
fVIII ([2]; before heating, fresh plasma): 102%
fibrinogen ([2]; before heating, fresh plasma): 198 mg/dL
PT (4 hrs at RT) ([3]; anticoagulant 0.65 wgt %): 14.1 s
PTT (4 hrs at RT) ([3]; anticoagulant 0.65 wgt %): 33.8 s
PT (4 hrs at RT) ([3]; anticoagulant 0.75 wgt %): 16.6 s
PTT (4 hrs at RT) ([3]; anticoagulant 0.75 wgt %): 33.2 s
PT (4 hrs at RT) ([3]; anticoagulant 0.90 wgt %): 36.5 s
PTT (4 hrs at RT) ([3]; anticoagulant 0.90 wgt %): 44.4 s
Level of calcium measured ([4]; Citrate Level 0.01%): 9.2 mg/dL
Level of calcium measured ([4]; Citrate Level 0.05%): 9.1 mg/dL
Level of calcium measured ([4]; Citrate Level 0.1%): 7.1 mg/dL
Level of calcium measured ([4]; Citrate Level 0.25%): 4.8 mg/dL
Level of calcium measured ([4]; Citrate Level 0.5%): 1.6 mg/dL
Level of calcium measured ([4]; Citrate Level 1%): 0.4 mg/dL
